According to patent US5116855A, “Rhodanine derivatives and pharmaceutical compositions” (Nisshin Flour Milling Co., Ltd., priority 1989, dated 1992):

Target: T1, aldose reductase (Rattus norvegicus, UniProt P07943)
T1 construct: the lenses were excised and homogenized in cold distilled water; from tissue; host or cells: lens of male SD rats, homogenate supernatant (crude enzyme)
Test: Inhibitory activity against aldose reductase (crude enzyme from rat lenses, NADPH oxidation at 340 nm, D,L-glyceraldehyde substrate)
Format: biochemical
Details: aldose reductase from SD rat lenses, pH 6.2, 30° C.; for inhibition at 10 µM: pH 6.2, 10^-5 M; for inhibition at 10 µM / inhibition at 1 µM: read-out: Percentage of inhibition (%); for inhibition at 1 µM: pH 6.2, 10^-6 M
Experimental: The compounds of the present invention were evaluated for the inhibitory activity against aldose reductase according to the following assay procedure.
Enzyme activity was assayed according to the modification [Biochemical Pharmacology, 25, 2505 (1976)] of the method described in J. Biol. Chem., 240, 877-882 (1965).
SD strain male rats were sacrificed by decapitation, the lenses were excised and homogenized in cold distilled water. The homogenate was then centrifuged and the supernatant was used as the crude aldose reductase solution.
Separately, a 0.1 M sodium phosphate buffer (pH 6.2) containing 0.4 M ammonium sulfate was prepared at 30° C. In this buffer were dissolved the present compound, the crude aldose reductase solution and nicotinamide-adenine dinucleotide phosphate, reduced form (NADPH). The mixture was preincubated at 30° C. for 3 minutes and the reaction was initiated by addition of D,L-glyceraldehyde. In this case, the concentration of the present compound dissolved was 10^-5 M and 10^-6 M, respectively. The total amount of the assay mixture was 1.0 ml, containing 0.16 mM of NADPH, 10 mM of D,L-glyceraldehyde and 0.010-0.016 units of aldose reductase.
The inhibitory activity of the present compounds against aldose reductase was measured using each 1.0 ml of the reaction mixture containing the present compound in the above concentration. In this measurement, the rate of NADPH oxidation was followed by recording the decrease in absorbance at 340 nm. The inhibitory activity of the present compounds against aldose reductase as measured was expressed in percentage of inhibition (%) as a relative activity based on a control value.

| Compound | inhibition at 10 µM | inhibition at 1 µM | Percentage of inhibition (%) (10^-5 M) | Percentage of inhibition (%) (10^-6 M) |
| --- | --- | --- | --- | --- |
| CCCCCCC(C=Cc1ccc(OCc2nn[nH]n2)cc1)=C1SC(=S)NC1=O [Example 4] | 62.6% | 29.9% |  |  |
| CCOC(=O)CCC(C=Cc1ccc(C(F)(F)F)cc1)=C1SC(=S)NC1=O (single isomer, unassigned) [6 Isomer A] | 35% |  |  |  |
| CC(C=Cc1ccc(OCC(=O)O)c(OCC(=O)O)c1)=C1SC(=S)NC1=O (single isomer, unassigned) [83 Isomer A] | 82.4% | 43.4% |  |  |
| CC(C=Cc1ccc(OCC(=O)O)c(OCC(=O)O)c1)=C1SC(=S)NC1=O (single isomer, unassigned) [83 Isomer B] |  |  | 75.8% | 36.8% |
| CCOC(=O)CCC(C=Cc1cccs1)=C1SC(=S)NC1=O (single isomer, unassigned) [13 Isomer B] |  |  | 54.3% |  |
| CC(C=Cc1ccc(OCC(=O)O)cc1)=C1SC(=S)NC1=O (single isomer, unassigned) [21 Isomer A] | 94.9% | 78.3% |  |  |
| COc1ccc(C=CC(CCCC(=O)O)=C2SC(=S)NC2=O)cc1OC (single isomer, unassigned) [38 Isomer B] |  |  | 94.5% | 77.9% |
| CCCCCCC(CCc1ccc(CCC(=O)O)cc1)=C1SC(=S)NC1=O (single isomer, unassigned) [33 Isomer B] |  |  | 30.5% |  |
| O=C(O)CCC(C=Cc1ccc(C(F)(F)F)cc1)=C1SC(=S)NC1=O (single isomer, unassigned) [Example 23, 6-(4-Trifluoromethylphenyl)-4-(4-oxo-2-thioxo-5-thiazolidinylidene)-5-hexenoic acid] | 64.6% |  |  |  |
| CCCCCCC(C=Cc1ccc(C=CC(=O)O)cc1)=C1SC(=S)NC1=O (single isomer, unassigned) [Example 28, 4-[3-(4-Oxo-2-thioxo-5-thiazolidinylidene)-1-nonenyl]cinnamic acid] | 33% |  |  |  |
| CCOc1cc(C=CC(C)=C2SC(=S)NC2=O)ccc1OCC(=O)OC [Example 44, Methyl 2-ethoxy-4-[3-(4-oxo-2-thioxo-5-thiazolinylidene)-1-butenyl]phenoxyacetate] | 39.1% |  |  |  |
| Ethyl 4-[3-(4-oxo-2-thioxo-5-thiazolidinylidene)-1-butenyl]-methoxyphenoxyacetate [Example 15] |  |  | 66.7% | 35.3% |
| CCCC(=Cc1ccccc1OCC(=O)OC)C=C1SC(=S)NC1=O (single isomer, unassigned) [61 Isomer B] |  |  | 77.2% | 39.0% |
| O=C(O)CCC(C=Cc1ccccc1F)=C1SC(=S)NC1=O (single isomer, unassigned) [Example 22, 6-(2-Fluorophenyl)-4-(4-oxo-2-thioxo-5-thiazolidinylidene)-5-hexenoic acid] | 88.1% | 41.9% |  |  |
| O=C1NC(=S)SC1=Cc1ccc(OCCCCc2nnn[nH]2)cc1 [Example 20, 5-{4-[4-(1H-Tetrazol-5-yl)butyloxy]benzylidene}-4-oxo-2-thioxothiazolidine] | 84% | 43.9% |  |  |
| CCCC(CCc1ccccc1OCC(=O)O)=C1SC(=S)NC1=O (single isomer, unassigned) [27 Isomer B] |  |  | 83.8% | 45.9% |
| CC(C=Cc1cc(Cl)ccc1OCC(=O)OCc1ccccc1)=C1SC(=S)NC1=O [Example 50, Benzyl 4-chloro-2-[3-(4-oxo-2-thioxo-5-thiazolinylidene)-1-butenyl]phenoxyacetate] | 48% |  |  |  |
| O=C(O)CCC(C=Cc1cccc(O)c1)=C1SC(=S)NC1=O (single isomer, unassigned) [Example 25, 6-(3-Hydroxyphenyl)-4-(4-oxo-2-thioxo-5-thiazolidinylidene)-5-hexenoic acid] | 82% | 32.9% |  |  |
| COc1ccc(C=CC(CCCC(=O)O)=C2SC(=S)NC2=O)cc1OC (single isomer, unassigned) [38 Isomer A] | 95.7% | 86.8% |  |  |
| CCOC(=O)CCC(C=Cc1cccs1)=C1SC(=S)NC1=O (single isomer, unassigned) [13 Isomer A] | 56% |  |  |  |
| COC(=O)COc1ccc(C(C)C)cc1C=CC(C)=C1SC(=S)NC1=O (single isomer, unassigned) [62 Isomer A] | 48.3% |  |  |  |
| CCOC(=O)CCC(C=Cc1cccc(O)c1)=C1SC(=S)NC1=O (single isomer, unassigned) [8 Isomer A] | 57.9% |  |  |  |
| COC(=O)COc1ccc(C=CC(C)=C2SC(=S)NC2=O)cc1OCC(=O)OC (single isomer, unassigned) [60 Isomer B] |  |  | 70.3% | 30.4% |
| CCCCOC(=O)COc1ccc(Cl)cc1C=CC(C)=C1SC(=S)NC1=O (single isomer, unassigned) [51 Isomer B] |  |  | 58.7% |  |
| CCCC(C=Cc1ccc(C(=O)O)cc1)=C1SC(=S)NC1=O (single isomer, unassigned) [3 Isomer A] | 77.1% | 29.7% |  |  |
| CCCCCCC(C=Cc1ccc(C(=O)O)cc1)=C1SC(=S)NC1=O (single isomer, unassigned) [26 Isomer B] |  |  | 52.1% |  |

More lines, now with the values ahead:

| inhibition at 10 µM | inhibition at 1 µM | Percentage of inhibition (%) (10^-5 M) | Percentage of inhibition (%) (10^-6 M) | Compound |
| --- | --- | --- | --- | --- |
| 73.8% |  |  |  | CCOc1cc(CCC(C)=C2SC(=S)NC2=O)ccc1OCC(=O)O [Example 71, 2-Ethoxy-4-[3-(4-oxo-2-thioxo-5-thiazolinylidene)butyl]phenoxyacetic acid] |
|  |  | 89.7% | 69.6% | CC(=Cc1ccccc1OCC(=O)O)C=C1SC(=S)NC1=O [Example 86, 2-[2-Methyl-3-(4-oxo-2-thioxo-5-thiazolinylidene)-1-propenyl]phenoxyacetic acid] |
| 92% | 77.6% |  |  | CC(C=Cc1cc(C(C)C)ccc1OCC(=O)O)=C1SC(=S)NC1=O [Example 85, 4-Isopropyl-2-[3-(4-oxo-2-thioxo-5-thiazolinylidene)-1-butenyl]phenoxyacetic acid] |
| 82.8% | 41.4% |  |  | CC(C=Cc1cc(C(C)C)c(OCC(=O)O)c(C(C)C)c1)=C1SC(=S)NC1=O [Example 77, 2,6-Diisopropyl-4-[3-(4-oxo-2-thioxo-5-thiazolinylidene)-1-butenyl]phenoxyacetic acid] |
| 95.3% | 87.6% |  |  | CC(C=Cc1cc(Cl)ccc1OCC(=O)O)=C1SC(=S)NC1=O [Example 75, 4-Chloro-2-[3-(4-oxo-2-thioxo-5-thiazolinylidene)-1-butenyl]phenoxyacetic acid] |
| 86.6% | 43% |  |  | CC(C=Cc1cc(Cl)cc(Cl)c1OCC(=O)O)=C1SC(=S)NC1=O [Example 80, 2,4-Dichloro-6-[3-(4-oxo-2-thioxo-5-thiazolinylidene)-1-butenyl]phenoxyacetic acid] |
| 93.7% | 82.4% |  |  | CC(=Cc1ccccc1OCC(=O)O)C=C1SC(=S)NC1=O [Example 68, 2-[2-Methyl-3-(4-oxo-2-thioxo-5-thiazolinylidene)-1-propenyl]phenoxyacetic acid] |
| 88.5% | 58.6% |  |  | COc1cc(C=C(C)C=C2SC(=S)NC2=O)ccc1OCC(=O)O [Example 76, 2-Methoxy-4-[2-methyl-3-(4-oxo-2-thioxo-5-thiazolinylidene)-1-propenyl]phenoxyacetic acid] |
|  |  | 77.6% | 35.9% | 5-[α-Methyl-4-(1H-tetrazol-5-yl)cinnamylidene)-4-oxo-2-thioxothiazolidine [Example 17] |
| 93.3% | 79.1% |  |  | COc1ccc(OCC(=O)O)c(C=CC(C)=C2SC(=S)NC2=O)c1 [Example 88, 4-Methoxy-2-[3-(4-oxo-2-thioxo-5-thiazolinylidene)-1-butenyl]phenoxyacetic acid] |
| 92% | 77.6% |  |  | CCCC(=Cc1ccccc1OCC(=O)O)C=C1SC(=S)NC1=O [Example 84, 2-[2-Propyl-3-(4-oxo-2-thioxo-5-thiazolinylidene)-1-propenyl]phenoxyacetic acid] |
| 87.1% | 65.9% |  |  | COc1cc(C=CC(C)=C2SC(=S)N(C)C2=O)ccc1OCC(=O)O [Example 78, 2-Methoxy-4-[3-(3-methyl-4-oxo-2-thioxo-5-thiazolinylidene)-1-butenyl]phenoxyacetic acid] |
| 75.4% |  |  |  | CC(C=Cc1cc(Br)cc(Br)c1OCC(=O)O)=C1SC(=S)NC1=O [Example 81, 2,4-Dibromo-6-[3-(4-oxo-2-thioxo-5-thiazolinylidene)-1-butenyl]phenoxyacetic acid] |
